Key:
[1] = Microsomal stability assay (human liver microsomes); assay type: in vitro ADME
Method: To human liver microsomes (0.5 mg/mL) were added 0.1 M phosphate buffer (pH 7.4) and tested compounds (1 μM). After incubation at 37 °C for 5 min, NADPH generation system solution was added and incubated at 37 °C for 30 min. To terminate reaction, acetonitrile including internal standard (chloprapamide) was added, and the solution was centrifuged for 5 min (14,000 rpm, 4 °C). The supernatant was then injected into the LC-MS/MS system to analyze the microsomal stability of the tested compound.

[2] = system: collagen-induced arthritis; test: Collagen-induced arthritis (CIA) mouse model; assay type: in vivo
Method: The collagen-induced arthritis mouse model was established as previously described. Briefly, male DBA/1 J mice (6 − 8-weeks-old) were obtained from Beijing Vital River Laboratory Animal Technology Co., Ltd. (Charles River Laboratories department in Beijing, China), and kept under specific pathogen-free conditions. Chick collagen type II (Chondrex, Redmond, Washington, USA) was dissolved in 0.05 M acetic acid to a concentration of 2 mg/mL and emulsified with a complete Freund’s adjuvant (2 mg/mL M. tuberculosis H37Ra, Chondrex). At the beginning of the experiments (day 0), the mice were immunized with a 0.1 mL emulsion containing 100 μg of collagen at the tail base with a glass syringe and 25-G needles and then administered a booster (on day 21) with the same preparation of collagen and incomplete Freund’s adjuvant (Chondrex).
(§1) Cell culture supernatants, mice sera and synovial fluid were analyzed for cytokine content using the BD OptEIA ELISA set (BD Pharmingen) for the detection of TNF-α, IL-6, IL-1β, and IL-18. All assays were performed as recommended by the manufacturer.
Intracellular ROS levels were measured by flow cytometry from cells cultured in serum-free medium and loaded with the redox-sensitive dye 2 µM dihydroethidium (DHE for O2^−; Calbiochem) or 10 µM 2′,7′-Dichlorofluorescin diacetate (DCFH-DA for H2O2; Calbiochem)[18],[19]. The cells were thoroughly and quickly washed with pulse spin and immediately acquired for analyses in FACSCalibur (BD Biosciences, San Jose, CA). The data were plotted using CellQuest software (BD Biosciences).
Figure 4 TIPTP protects mice from CIA mice. (a) Schematic of the CIA model treated with TIPTP (upper). FACS analysis for superoxide and hydrogen peroxide from synovial fluid containing synoviocytes from CIA (lower). (b) Representative H&E staining of the ankle joints of each group were determined at 4 wks of CIA (left). Clinical arthritis score and swelling of paws (right) from ten mice per group. Scale bars: 500 μm. Serum (c) and Synovial fluid (d) were harvested at 4 wks of CIA and analyzed for cytokines by ELISA. […]
Arthritis mice were evaluated for disease progression three times a week as follows ^1,2. Each limb was scored according to the severity of inflammation, where 0 : no evidence of redness or swelling, 1 : redness and slight swelling confined to the tarsal joints or ankle, 2 : redness and mild swelling extending from the ankle to the tarsal joints, 3 : redness and moderate swelling extending from the ankle to the metatarsal joints, and 4 : severe swelling encompassing the ankle, foot, and digits, or ankylosis of the limb. […]

NLRP3 inflammasome = NLRP3 inflammasome activation in LPS/ATP-treated BMDMs (immunoblot, ELISA); assay type: cell-based, mouse; details: NLRP3 inflammasome-activating stimuli (Fig. 3e, 3f)
Method: For immunoblotting, polypeptides were resolved by SDS-polyacrylamide gel electrophoresis and transferred to a PVDF membrane (Bio-Rad). […] Antibody binding was visualized by chemiluminescence (ECL; Millipore) and detected by a Vilber chemiluminescence analyzer (Fusion SL 3; Vilber Lourmat).
as §1
Figure 3 TIPTP robustly suppresses LPS/ATP-mediated Rubicon-p22phox interaction and ROS-mediated inflammation. (a) Structure of the TIPTP. (b) MTT assay for cell viability. BMDMs were incubated with TIPTP for the indicated times at the indicated TIPTP concentrations (upper). WCLs were used for IB with α22phox, αRubicon, or αActin (lower). (c–f) LPS (100 ng/ml)-primed BMDMs were treated with compounds for 1 h, and then activated with ATP (1 mM) for 30 min. (c) NADPH oxidase activity. (d) FACS analysis for superoxide and hydrogen peroxide (upper). Quantitative analysis of mean fluorescence intensities of ROS (lower). (e) BMDMs were incubated with increasing concentrations of compound 1 and TIPTP (com 2) (***). IP with αRubicon, followed by IB with αp22phox, αBeclin-1, αUVRAG, αRubicon. […] (f) Culture supernatants were harvested and analyzed for cytokines by ELISA. […]

SMILES: C[C@@H](Oc1cccc(-n2cc3c(n2)CCCC3)c1)C(=O)Nc1nnc(C(F)(F)F)s1 [TIPTP, (R)-2-(3-(4,5,6,7-tetrahydro-2H-indazol-2-yl)phenoxy)-N-(5-(trifluoromethyl)-1,3,4-thiadiazol-2-yl)propanamide]
- metabolism in human hepatic microsomes ([1]; in words): easily metabolized
- remaining at 0.5 h, 1 μM ([1]; pH 7.4, human liver microsomes 0.5 mg/mL, 1 μM, 30 min, read-out: Human liver microsomal stability (% remaining after 30 min)): 4.4%
- severity of RA (clinical parameters, paw thickness, histology) vs vehicle-treated CIA mice ([2]; CIA mice (Fig. 4b, Supplemental Fig. 6a)): markedly lower
- serum and synovial fluid concentrations of TNF-α, IL-6, IL-1β, and IL-18 ([2]; CIA mice, 4 wks, ELISA (Fig. 4c,d)): significantly attenuated
- production of ROS by synovial tissues ([2]; CIA mice, dose-dependent (Fig. 4a)): significantly attenuated
- binding of p22phox with Rubicon protein in synoviocytes ([2]; synoviocytes from CIA mice, co-IP (Fig. 4e)): markedly decreased
- caspase-1 activation, and IL-1β and IL-18 maturation (NLRP3 inflammasome): significantly decreased
